Measurements as given in patent US5561047A, “Method of identifying effectors of integrin activation” (priority 1994, dated 1996).
Where two headings read alike, the source gives them in different places.

Legend:
[1] = molecular target: T1, integrin αIIb β3 (washed human platelets) (Homo sapiens, UniProt P05106+P08514); test: integrin activation ELISA: biotin-PAC1 binding to intact washed platelets; assay type: cell-based; conditions: for extent of biotin-PAC1 binding at maximal agonist concentrations: comparison of thrombin, PMA and ADP; for αIIb β3 activation: physiological agonists
T1 construct: endogenous in cells; host or cells: washed human platelets from whole blood of healthy volunteers
Experimental: Platelet incubations were carried out in wells of Falcon flexible polyvinyl chloride (PVC) microtitre plates with 96 U-bottom wells (Becton Dickinson, San Jose, Calif.). ELISA reactions were carried out in 96 well Immulon II polystyrene plates (Dynatech Laboratories, Inc., Chantilly, Va.) that had been precoated with streptavidin. This was accomplished by addition of 75 μl/well of streptavidin (1.25 μg/ml) for 16 hours at 4°, followed by washing four times with 200 μl of 1% TWEEN(polyethylenesorbit -20 in phosphate-buffered saline (PBS), pH 7.4, blocking with 200 μl of 1% bovine serum albumin in PBS for 2 hours at room temperature, and washing again. These plates could be stored at -20° for at least 3 months prior to use in the assay.
(§1) Whole blood was obtained from healthy, drug-free volunteers and anticoagulated with a 1:6 volume of acid-citrate-dextrose formula A. Platelet-rich plasma was collected by centrifugation at 180×g for 20 minutes, incubated for 5 minutes with 1 μM prostaglandin E1 and 1 unit/ml apyrase, then sedimented at 500×g for 10 minutes and resuspended in 5 ml of 2 wash buffer containing 20 mM HEPES, 0.15 M NaCl, 0.1% glucose, 1 μM prostaglandin E1, 1 unit/ml apyrase, and 1.5 mM EDTA, pH 7.4. After another centrifugation at 500×g for 20 minutes, the platelets were finally resuspended to 5.8×10^8 /ml in an incubation buffer containing 137 mM NaCl, 2.7 mM KCl, 1.0 mM MgCl2, 3.3 mM NaH2 PO4, 0.1% glucose, 0.1% bovine serum albumin, and 20 mM HEPES, pH 7.35.
Fifty-five μl of washed platelets were added in triplicate to wells of PVC plates containing 10 μl of the desired agonist (or the activation inhibitor, PGI2) and 25 μl of the desired inhibitory test compound (or the equivalent vehicle as a diluent). After 10 minutes at 37° without shaking, 10 μl of biotin-PAC1 were added to achieve a final antibody concentration of 0.5 μg/ml and a platelet concentration of 3.2×10^8 /ml. After a further 15 minutes incubation at room temperature without shaking, the microtitre plates were centrifuged at 2800 rpm for 10 minutes to sediment the platelets, conditions under which essentially all of the platelets were removed from the supernatant.
After platelet centrifugation, 50 μl of supernatant from each well were transferred to corresponding wells of streptavidin-coated plates and incubated for 30 minutes at room temperature. Each well was then washed four times with 200 μl of PBS/Tween, followed by addition of 50 μl of goat anti-mouse IgM-horseradish peroxidase conjugate (1:1500). After incubation for 60 minutes at room temperature, the plates were again washed four times with PBS/Tween, followed by addition of 50 μl of a reaction mixture containing 1 mg/ml o-phenylenediamine dihydrochloride and 0.012% H2 O2 in 0.1 M citrate buffer, pH 4.5. After a final 20 minutes at room temperature, reactions were stopped with 25 μl of 4 N HCl, and formation of the reaction product was measured at 490 nm in a THERMOmax microplate reader (Molecular Devices, Inc.)
Triplicate aliquots of washed human platelets were incubated in microtitre wells at a final volume of 90 μl in the presence of a platelet agohist such as PMA or thrombin, in order to convert αIIb β3 into a high affinity, ligand-competent state. Compounds that were being tested for their ability to inhibit αIIb β3 were also added to some of the wells at this stage. Other wells contain PGI2 (0.2 μM), a potent platelet activation inhibitor, to purposely maintain αIIb β3 in a low-affinity state. After 10 minutes at 37°, 10 μl of a subsaturating and limiting concentration of biotin-PAC1 was added to each well and the incubation was continued for an additional 15 minutes at room temperature.
The microtitre plates were then centrifuged at 2800 rpm for 10 minutes in order to sediment the platelets. […] In contrast, platelets in wells containing an agonist have bound biotinPAC1. […]

[2] = test system: "internal" pool of activated αIIb β3; conditions: unstirred platelets; Woods et al. 1986; cited from earlier work
[3] = test system: integrin αIIb β3 (washed platelets); test: flow cytometry of FITC-PAC1 binding to washed platelets; assay type: cell-based, human; conditions: washed platelets stimulated for 15 minutes with 0.2 mM phorbol myristate acetate; representative experiment
Experimental: as §1
Assay variables in each step of the assay were examined systematically. […] Flow cytometry was used to assess the activation state of the platelets using FITC-PAC1 as the activation marker (Shattil et al., Blood 1987, 70, 307). No activation of washed platelets was detected. In a representative experiment, mean FITC-PAC1 binding to washed platelets was 22 arbitrary fluorescence units, a value identical to that obtained with platelets in whole blood or in platelet-rich plasma. FITC-PAC1 binding to washed platelets that had been stimulated for 15 minutes with 0.2 mM phorbol myristate acetate amounted to 1,776 fluorescence units.

αIIb β3 = conditions: PMA 0.2 μM; Shattil et al., Blood 1987; cited from earlier work
[4] = test system: platelet aggregation and secretion; conditions: Sless, Physiol. Rev. 1989; cited from earlier work
protein kinase C = conditions: Toullec et al. 1991; cited from earlier work

T1 sequence (P08514 32-887 limits assumed): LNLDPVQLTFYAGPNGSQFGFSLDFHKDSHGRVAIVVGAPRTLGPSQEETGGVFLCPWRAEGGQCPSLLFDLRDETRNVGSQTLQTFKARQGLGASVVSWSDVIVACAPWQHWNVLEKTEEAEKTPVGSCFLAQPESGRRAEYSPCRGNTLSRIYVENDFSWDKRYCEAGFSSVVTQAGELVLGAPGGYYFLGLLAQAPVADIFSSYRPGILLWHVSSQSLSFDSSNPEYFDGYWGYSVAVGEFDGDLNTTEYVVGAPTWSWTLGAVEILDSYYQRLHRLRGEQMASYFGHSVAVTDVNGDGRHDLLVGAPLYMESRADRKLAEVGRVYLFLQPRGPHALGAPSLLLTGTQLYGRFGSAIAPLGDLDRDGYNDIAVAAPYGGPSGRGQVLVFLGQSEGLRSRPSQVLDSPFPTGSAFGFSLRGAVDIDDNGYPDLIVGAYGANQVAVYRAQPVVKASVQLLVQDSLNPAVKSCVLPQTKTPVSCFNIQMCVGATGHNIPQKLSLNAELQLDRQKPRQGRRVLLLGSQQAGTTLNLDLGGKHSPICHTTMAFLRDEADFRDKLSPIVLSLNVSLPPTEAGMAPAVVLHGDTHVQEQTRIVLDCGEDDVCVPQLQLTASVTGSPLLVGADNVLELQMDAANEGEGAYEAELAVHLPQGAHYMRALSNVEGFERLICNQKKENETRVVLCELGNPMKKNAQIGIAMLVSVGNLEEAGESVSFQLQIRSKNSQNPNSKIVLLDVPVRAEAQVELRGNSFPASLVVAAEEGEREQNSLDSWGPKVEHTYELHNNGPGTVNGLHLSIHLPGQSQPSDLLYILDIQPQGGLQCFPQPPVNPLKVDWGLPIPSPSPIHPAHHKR
T1 sequence (P08514 891-1039 limits assumed): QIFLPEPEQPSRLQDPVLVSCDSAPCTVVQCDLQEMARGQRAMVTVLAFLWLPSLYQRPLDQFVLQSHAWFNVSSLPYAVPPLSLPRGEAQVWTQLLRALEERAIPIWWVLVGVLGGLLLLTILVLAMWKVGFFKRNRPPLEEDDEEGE
T1 sequence (P05106 27-788): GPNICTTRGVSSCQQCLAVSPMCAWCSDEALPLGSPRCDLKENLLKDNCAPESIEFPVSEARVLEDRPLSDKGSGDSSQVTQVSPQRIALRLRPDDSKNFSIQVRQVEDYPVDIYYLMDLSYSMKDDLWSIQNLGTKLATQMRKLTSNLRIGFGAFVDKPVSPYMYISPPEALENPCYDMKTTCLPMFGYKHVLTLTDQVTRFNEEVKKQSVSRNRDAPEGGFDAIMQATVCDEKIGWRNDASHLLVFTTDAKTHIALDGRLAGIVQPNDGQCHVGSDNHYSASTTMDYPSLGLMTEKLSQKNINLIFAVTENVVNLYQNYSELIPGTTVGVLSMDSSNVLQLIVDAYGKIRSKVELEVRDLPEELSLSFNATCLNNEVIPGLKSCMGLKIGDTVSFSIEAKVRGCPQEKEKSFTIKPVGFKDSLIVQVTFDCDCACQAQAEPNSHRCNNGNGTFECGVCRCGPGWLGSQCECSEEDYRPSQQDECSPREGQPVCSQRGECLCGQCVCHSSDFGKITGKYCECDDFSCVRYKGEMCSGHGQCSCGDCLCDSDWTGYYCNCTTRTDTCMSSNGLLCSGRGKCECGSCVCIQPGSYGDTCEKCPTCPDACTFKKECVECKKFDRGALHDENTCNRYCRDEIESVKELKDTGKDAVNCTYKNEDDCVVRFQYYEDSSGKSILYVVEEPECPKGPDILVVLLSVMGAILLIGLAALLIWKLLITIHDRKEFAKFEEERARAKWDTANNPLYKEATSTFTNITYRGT

## CCCCCCCCCCCCCC(=O)O[C@@H]1[C@@H](C)[C@@]2(O)[C@@H](C=C(CO)C[C@]3(O)C(=O)C(C)=C[C@@H]23)[C@@H]2C(C)(C)[C@]12OC(C)=O [PMA, phorbol myristate acetate]
[1]; PMA 0.2 μM
  activation of αIIb β3 in the integrin activation ELISA: maximal activation of αIIb β3
[1]; PMA 0.2 μM, 0.5 μg/ml biotin-PAC1, increasing number of activated platelets
  amount of biotin-PAC1 remaining in supernatant: decreased as the number of activated platelets in the well increased
[1]
  extent of biotin-PAC1 binding at maximal agonist concentrations: similar
[2]
  stimulation of surface expression of an internal pool of activated αIIb β3: stimulate the surface expression
[3]
  mean FITC-PAC1 binding: 1,776 fluorescence units
αIIb β3
  activation of αIIb β3 in conventional assays: maximal activation of αIIb β3

## fibrinogen
[1]; activated platelets, read-out: IC50, inhibition of biotin-PAC1 binding to activated platelets
  IC50: 0.4 µM

## O=CC[C@@H](O)[C@H](O)[C@H](O)CO [2-Deoxyglucose]
[4]
  inhibition of platelet aggregation and secretion: block both platelet aggregation and secretion

## Nc1ncnc2c1ncn2[C@@H]1O[C@H](COP(=O)(O)OP(=O)(O)O)[C@@H](O)[C@H]1O [ADP]
[1]
  EC50: ~1 µM
  extent of biotin-PAC1 binding at maximal agonist concentrations: less
  αIIb β3 activation: caused αIIb β3 activation in a dose-dependent manner
[1]; ADP
  concentration of maximal αIIb β3 activation: 10 µM

## antimycin A
[4]
  inhibition of platelet aggregation and secretion: block both platelet aggregation and secretion

## RGES
[1]; activated platelets
  inhibition of biotin-PAC1 binding to activated platelets: ineffective

## CCCCC[C@H](O)/C=C/[C@@H]1[C@H]2C/C(=C/CCCC(=O)O)O[C@H]2C[C@H]1O [PGI2, prostaglandin I2]
[1]; PGI2 0.2 μM
  biotin-PAC1 bound to platelets in wells containing PGI2: do not have bound biotin-PAC1
[1]; PGI2-treated, unactivated platelets, any platelet concentration
  depletion of PAC1 from supernatant: No depletion of PAC1 was observed

## RGDS
[1]; activated platelets
  inhibition of biotin-PAC1 binding to activated platelets: inhibited in a dose-dependent manner

## bisindolylmaleimide
[1]; PMA-stimulated platelets
  concentration of complete inhibition of biotin-PAC1 binding: 20 µM
[1]; PMA-stimulated platelets, read-out: IC50, inhibition of biotin-PAC1 binding
  IC50: ~1 µM
Protein kinase C
  concentration maximally effective on protein kinase C in platelets: 10 to 20 µM

## thrombin
[1]
  extent of biotin-PAC1 binding at maximal agonist concentrations: similar
  αIIb β3 activation: caused αIIb β3 activation in a dose-dependent manner
[1]; thrombin
  concentration of maximal αIIb β3 activation: 0.1 U/ml
[2]
  stimulation of surface expression of an internal pool of activated αIIb β3: stimulate the surface expression
